According to ChEMBL document CHEMBL1139622, “Discovery of potent and selective orally bioavailable beta-substituted phenylalanine derived dipeptidyl peptidase IV inhibitors” (Bioorg Med Chem Lett, 2005):
pIC50: −log10 of the molar value.

How the values were obtained:
Dipeptidyl peptidase 9 = Dipeptidyl peptidase 9 (Homo sapiens, UniProt Q86TI2)
Description: Inhibitory concentration against dipeptidylpeptidase 9

Dipeptidyl peptidase 4 [1] = target: Dipeptidyl peptidase 4 (Homo sapiens, UniProt P27487)
Description: Inhibitory concentration against dipeptidylpeptidase IV

Dipeptidyl peptidase 2 = Dipeptidyl peptidase 2 (Homo sapiens, UniProt Q9UHL4)
Description: Inhibitory concentration against dipeptidylpeptidase II (QPP)

[2] = Plasma clearance in rat; type: ADME, organism-based; details: read-out: Clp
[3] = Half-life in rat; type: ADME; details: in vivo
in vivo = details: rat
Dipeptidyl peptidase 8 = Dipeptidyl peptidase 8 (Homo sapiens, UniProt Q6V1X1)
Chain of Dipeptidyl peptidase 8 (Q6V1X1 whole entry): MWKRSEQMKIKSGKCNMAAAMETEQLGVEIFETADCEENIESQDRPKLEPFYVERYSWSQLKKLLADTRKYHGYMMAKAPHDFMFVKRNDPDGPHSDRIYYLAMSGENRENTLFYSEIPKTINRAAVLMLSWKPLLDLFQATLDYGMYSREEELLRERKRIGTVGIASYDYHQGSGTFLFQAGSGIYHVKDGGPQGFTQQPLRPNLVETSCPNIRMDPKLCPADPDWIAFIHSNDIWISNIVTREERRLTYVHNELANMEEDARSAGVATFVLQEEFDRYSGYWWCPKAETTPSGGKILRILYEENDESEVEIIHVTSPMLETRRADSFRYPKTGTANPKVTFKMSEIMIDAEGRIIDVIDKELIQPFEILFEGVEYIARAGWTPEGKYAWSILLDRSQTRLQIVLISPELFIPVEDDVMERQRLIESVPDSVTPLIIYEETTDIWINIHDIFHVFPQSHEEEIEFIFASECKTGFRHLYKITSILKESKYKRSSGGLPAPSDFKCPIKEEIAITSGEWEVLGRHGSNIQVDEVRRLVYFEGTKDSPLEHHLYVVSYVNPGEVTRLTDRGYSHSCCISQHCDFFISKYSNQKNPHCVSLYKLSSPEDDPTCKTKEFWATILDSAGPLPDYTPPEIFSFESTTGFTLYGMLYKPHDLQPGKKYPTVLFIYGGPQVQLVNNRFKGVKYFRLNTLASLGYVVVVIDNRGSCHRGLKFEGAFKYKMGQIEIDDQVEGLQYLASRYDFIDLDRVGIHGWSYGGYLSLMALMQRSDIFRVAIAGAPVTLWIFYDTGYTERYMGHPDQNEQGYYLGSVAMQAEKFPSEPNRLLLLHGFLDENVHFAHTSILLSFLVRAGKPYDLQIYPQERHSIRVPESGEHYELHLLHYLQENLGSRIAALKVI
Description: Inhibitory concentration against dipeptidylpeptidase 8

[4] = Half-life in dog; type: ADME, Canis lupus familiaris; details: in vivo
Dipeptidyl peptidase 4 [5] = target: T1, Dipeptidyl peptidase 4 (Mus musculus, UniProt P28843); experiment: Inhibitory concentration against mouse dipeptidylpeptidase IV in presence of 50% mouse serum
T1 sequence (P28843 whole entry): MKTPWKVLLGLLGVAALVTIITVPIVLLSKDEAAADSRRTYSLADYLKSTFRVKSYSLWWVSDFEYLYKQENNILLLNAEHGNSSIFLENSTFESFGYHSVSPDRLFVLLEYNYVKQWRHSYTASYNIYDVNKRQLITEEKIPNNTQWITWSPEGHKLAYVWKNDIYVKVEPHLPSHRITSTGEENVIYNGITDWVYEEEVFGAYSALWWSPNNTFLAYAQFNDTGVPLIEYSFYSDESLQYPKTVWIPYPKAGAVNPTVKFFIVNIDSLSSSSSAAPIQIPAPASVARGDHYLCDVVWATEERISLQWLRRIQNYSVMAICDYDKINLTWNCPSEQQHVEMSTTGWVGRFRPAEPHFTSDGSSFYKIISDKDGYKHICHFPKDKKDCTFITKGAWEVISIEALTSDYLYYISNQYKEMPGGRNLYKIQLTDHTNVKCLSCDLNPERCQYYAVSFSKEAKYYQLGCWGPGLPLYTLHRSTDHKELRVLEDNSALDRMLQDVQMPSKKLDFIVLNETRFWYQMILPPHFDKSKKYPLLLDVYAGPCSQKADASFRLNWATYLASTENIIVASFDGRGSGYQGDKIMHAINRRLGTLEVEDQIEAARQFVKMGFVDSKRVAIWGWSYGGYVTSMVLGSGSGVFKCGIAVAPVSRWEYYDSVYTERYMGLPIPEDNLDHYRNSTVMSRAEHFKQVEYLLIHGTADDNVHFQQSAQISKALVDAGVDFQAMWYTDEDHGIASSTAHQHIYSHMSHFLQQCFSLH

Dipeptidyl peptidase 4 [6] = target: T1, Dipeptidyl peptidase 4; experiment: Inhibitory concentration against mouse dipeptidylpeptidase IV in presence of 3% mouse serum
[7] = Plasma clearance in dog; type: ADME, organism-based, Canis lupus familiaris; details: read-out: Clp
[8] = Half-life in rhesus monkey; type: ADME; details: cercopithecidae, in vivo
Dipeptidyl peptidase 4 [9] = target: T1, Dipeptidyl peptidase 4; experiment: Inhibitory concentration against mouse dipeptidylpeptidase IV in presence of 15% mouse serum
[10] = Plasma clearance in rhesus monkey; type: ADME, organism-based; details: cercopithecidae, read-out: Clp
[11] = Half -life in rat; type: ADME; details: in vivo

Chain of Dipeptidyl peptidase 4 (Homo sapiens, UniProt P27487) (P27487 whole entry): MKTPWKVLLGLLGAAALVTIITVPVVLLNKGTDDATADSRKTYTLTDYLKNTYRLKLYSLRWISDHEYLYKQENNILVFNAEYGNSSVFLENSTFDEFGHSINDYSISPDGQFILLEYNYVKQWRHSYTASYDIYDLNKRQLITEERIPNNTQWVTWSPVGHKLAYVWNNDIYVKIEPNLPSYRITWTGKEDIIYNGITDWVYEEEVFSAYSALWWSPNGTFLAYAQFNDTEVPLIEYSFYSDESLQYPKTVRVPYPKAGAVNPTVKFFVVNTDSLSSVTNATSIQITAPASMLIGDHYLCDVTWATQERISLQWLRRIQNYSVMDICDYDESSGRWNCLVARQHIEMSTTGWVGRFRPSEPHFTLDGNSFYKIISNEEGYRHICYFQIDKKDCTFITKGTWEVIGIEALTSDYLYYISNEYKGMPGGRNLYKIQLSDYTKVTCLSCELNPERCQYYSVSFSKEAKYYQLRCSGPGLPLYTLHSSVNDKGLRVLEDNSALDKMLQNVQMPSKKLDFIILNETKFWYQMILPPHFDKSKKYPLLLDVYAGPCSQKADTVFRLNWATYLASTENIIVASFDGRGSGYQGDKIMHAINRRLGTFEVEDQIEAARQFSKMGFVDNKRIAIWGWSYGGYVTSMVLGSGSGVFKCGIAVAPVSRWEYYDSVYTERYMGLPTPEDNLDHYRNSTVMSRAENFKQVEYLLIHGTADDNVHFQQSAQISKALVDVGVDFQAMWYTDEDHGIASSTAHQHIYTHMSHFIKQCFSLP
Chain of Dipeptidyl peptidase 9 (Q86TI2 whole entry): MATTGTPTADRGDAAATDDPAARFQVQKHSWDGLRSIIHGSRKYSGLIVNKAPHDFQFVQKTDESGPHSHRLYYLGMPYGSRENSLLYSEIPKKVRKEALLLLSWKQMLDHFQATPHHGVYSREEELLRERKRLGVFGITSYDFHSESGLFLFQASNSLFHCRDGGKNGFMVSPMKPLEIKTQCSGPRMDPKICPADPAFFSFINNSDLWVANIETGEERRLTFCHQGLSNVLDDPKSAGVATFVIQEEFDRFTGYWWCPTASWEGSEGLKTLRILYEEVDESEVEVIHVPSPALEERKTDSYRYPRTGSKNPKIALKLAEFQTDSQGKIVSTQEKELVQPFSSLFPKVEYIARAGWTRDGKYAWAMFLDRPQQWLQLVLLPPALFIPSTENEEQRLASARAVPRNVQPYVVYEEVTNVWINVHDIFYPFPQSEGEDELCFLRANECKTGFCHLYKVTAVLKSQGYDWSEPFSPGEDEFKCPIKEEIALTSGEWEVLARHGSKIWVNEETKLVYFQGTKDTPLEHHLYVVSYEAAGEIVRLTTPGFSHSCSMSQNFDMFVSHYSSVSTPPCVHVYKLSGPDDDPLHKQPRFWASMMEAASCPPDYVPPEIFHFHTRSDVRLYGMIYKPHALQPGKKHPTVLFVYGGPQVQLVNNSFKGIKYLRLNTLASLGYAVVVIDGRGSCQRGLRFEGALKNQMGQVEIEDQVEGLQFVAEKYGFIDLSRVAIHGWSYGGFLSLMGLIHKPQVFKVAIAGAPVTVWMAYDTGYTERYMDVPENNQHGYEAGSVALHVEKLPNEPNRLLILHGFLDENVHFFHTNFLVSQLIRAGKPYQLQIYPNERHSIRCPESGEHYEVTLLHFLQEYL

Row | pIC50 (Dipeptidyl peptidase 9) | pIC50 (Dipeptidyl peptidase 4 [1]) | pIC50 (Dipeptidyl peptidase 2) | pIC50 (Dipeptidyl peptidase 8) | other results | SMILES
1 | < 4.00 | 7.36 | 5.28 |  |  | N[C@H](C(=O)N1CC[C@H](F)C1)[C@@H](C(=O)N1CCC1)c1ccc(-c2ccc(F)cc2)cc1
2 | < 4.00 | 7.89 | 4.82 |  |  | CN(C)C(=O)[C@@H](c1ccc(-c2ccc(F)cc2F)cc1)[C@H](N)C(=O)N1CC[C@H](F)C1
3 | < 4.00 | 7.96 | < 4.00 |  | clearance [2]: 55 mL/min/kg; half-life [3]: 0.2 h; bioavailability (in vivo): < 1% | N[C@H](C(=O)N1CC[C@H](F)C1)[C@@H](C(=O)Nn1cnnn1)c1ccc(-c2ccc(F)cc2)cc1.O=C(O)C(F)(F)F
4 | < 4.00 | 7.00 | 4.12 |  |  | CC(C)NC(=O)[C@@H](c1ccc(-c2ccc(F)cc2)cc1)[C@H](N)C(=O)N1CC[C@H](F)C1
5 | < 4.00 | 5.80 | 5.60 |  |  | CN(C)C[C@@H](c1ccc(-c2ccc(F)cc2)cc1)[C@H](N)C(=O)N1CC[C@H](F)C1
6 |  | 8.48 | 4.40 |  |  | CN(C)C(=O)[C@@H](c1ccc(-c2ccc(F)cc2)cc1)[C@H](N)C(=O)N1CCC[C@H]1C#N
7 | < 4.00 | 6.96 | 4.05 | < 4.00 |  | CCNC(=O)[C@@H](c1ccc(-c2ccc(F)cc2)cc1)[C@H](N)C(=O)N1CC[C@H](F)C1
8 | < 4.00 | 6.01 | < 4.00 | < 4.00 |  | N[C@@H](Cc1ccc(-c2ccc(F)cc2)cc1)C(=O)N1CC[C@H](F)C1
9 | < 4.00 | 5.46 | 6.15 |  |  | N[C@H](C(=O)N1CC[C@H](F)C1)[C@@H](CN1CCCC1)c1ccc(-c2ccc(F)cc2)cc1
10 |  | 7.68 | 4.36 |  |  | CN(C)C(=O)[C@@H](c1ccc(-c2ccc(F)c(F)c2)cc1)[C@H](N)C(=O)N1CC[C@H](F)C1
11 |  | 7.37 | 4.24 |  |  | CN(C)C(=O)[C@@H](c1ccc(-c2cccc(C#N)c2)cc1)[C@H](N)C(=O)N1CC[C@H](F)C1
12 |  | 8.12 | 4.59 |  | clearance [2]: 16 mL/min/kg; half-life [3]: 2 h; bioavailability (in vivo): 100% | CN(C)C(=O)[C@@H](c1ccc(-c2ccc(F)cc2)cc1)[C@H](N)C(=O)N1CCCC1.O=C(O)C(F)(F)F
13 | < 4.00 | 7.03 |  |  |  | N[C@H](C(=O)N1CC[C@H](F)C1)[C@@H](C(=O)NCCO)c1ccc(-c2ccc(F)cc2)cc1
14 | < 4.00 | 7.43 | < 4.00 |  |  | CNC(=O)[C@@H](c1ccc(-c2ccc(F)cc2)cc1)[C@H](N)C(=O)N1CC[C@H](F)C1
15 | < 4.00 | 7.15 | 4.26 |  |  | N[C@H](C(=O)N1CC[C@H](F)C1)[C@@H](C(=O)NC1CC1)c1ccc(-c2ccc(F)cc2)cc1
16 |  | 8.04 | 5.07 |  |  | CN(C)C(=O)[C@@H](c1ccc(-c2ccc(F)cc2)cc1)[C@H](N)C(=O)N1CCSC1
17 | < 4.00 | 6.26 | 4.42 | < 4.00 |  | CN(C)C(=O)[C@@H](c1ccc(-c2ccc(F)cc2)cc1)[C@H](N)C(=O)N1CCCCC1
18 |  |  |  |  | clearance [2]: 4.8 mL/min/kg; half-life [4]: 6.1 h; half-life [3]: 3.5 h; pIC50 (Dipeptidyl peptidase 4 [5]): 6.64; pIC50 (Dipeptidyl peptidase 4 [6]): 7.30; clearance [7]: 1.5 mL/min/kg; half-life [8]: 4.7 h; pIC50 (Dipeptidyl peptidase 4 [9]): 7.15; clearance [10]: 2.4 mL/min/kg | CN(C)C(=O)[C@@H](c1ccc(-c2ccc(F)cc2)cc1)[C@H](N)C(=O)N1CC[C@H](F)C1.O=C(O)C(F)(F)F
19 | < 4.00 | 6.96 | < 4.00 | < 4.00 |  | NC(=O)[C@@H](c1ccc(-c2ccc(F)cc2)cc1)[C@H](N)C(=O)N1CC[C@H](F)C1
20 |  | 8.04 | 5.25 |  | clearance [2]: 18 mL/min/kg; half-life [3]: 1.7 h; bioavailability (in vivo): 21% | N[C@H](C(=O)N1CC[C@H](F)C1)[C@@H](C(=O)N1CCCC1)c1ccc(-c2ccc(F)cc2)cc1.O=C(O)C(F)(F)F

Row | pIC50 (Dipeptidyl peptidase 9) | pIC50 (Dipeptidyl peptidase 4 [1]) | pIC50 (Dipeptidyl peptidase 2) | pIC50 (Dipeptidyl peptidase 8) | other results | SMILES
21 | < 4.00 | 8.18 | < 4.00 | < 4.00 | clearance [2]: 0.25 mL/min/kg; half-life [11]: 3.1 h; bioavailability (in vivo): 16% | N[C@H](C(=O)N1CC[C@H](F)C1)[C@@H](C(=O)O)c1ccc(-c2ccc(F)cc2)cc1.O=C(O)C(F)(F)F
22 |  | 7.57 | 5.15 |  |  | CN(C)C(=O)[C@@H](c1ccc(-c2ccc(F)cc2)cc1)[C@H](N)C(=O)N1CCC(F)(F)C1
23 | < 4.00 | 8.66 | 4.54 | < 4.00 | clearance [2]: 18 mL/min/kg; half-life [3]: 0.74 h; bioavailability (in vivo): < 1% | CN(C)C(=O)[C@@H](c1ccc(-c2cccc(-n3cnnn3)c2)cc1)[C@H](N)C(=O)N1CC[C@H](F)C1.O=C(O)C(F)(F)F
24 | < 4.00 | 7.25 | 4.96 |  |  | CN(C)C(=O)[C@@H](c1ccc(-c2cc(F)ccc2F)cc1)[C@H](N)C(=O)N1CC[C@H](F)C1
25 | < 4.00 | 6.72 | < 4.00 | < 4.00 |  | N[C@H](C(=O)N1CC[C@H](F)C1)[C@@H](Cn1cnnn1)c1ccc(-c2ccc(F)cc2)cc1
26 | < 4.00 | 7.77 | 4.24 | < 4.00 |  | CN(C)C(=O)[C@@H](c1ccc(-c2ccc(F)cc2)cc1)[C@H](N)C(=O)N1CC(F)C1
27 | < 4.00 | 7.54 | 5.03 | < 4.00 |  | CN(C)C(=O)[C@@H](c1ccc(-c2ccc(F)cc2)cc1)[C@H](N)C(=O)N1CC(F)(F)C1
28 | < 4.00 | 7.23 | 4.32 |  |  | CCN(CC)C(=O)[C@@H](c1ccc(-c2ccc(F)cc2)cc1)[C@H](N)C(=O)N1CC[C@H](F)C1
29 | < 4.00 | 6.41 | 4.82 | < 4.00 |  | N[C@H](C(=O)N1CC[C@H](F)C1)[C@@H](CO)c1ccc(-c2ccc(F)cc2)cc1
30 | < 4.00 | 6.64 | 4.12 | < 4.00 |  | CN(C)C(=O)[C@@H](c1ccc(-c2ccc(F)cc2)cc1)[C@H](N)C(=O)N1CCS(=O)(=O)C1
31 | < 4.00 | 7.00 | < 4.00 | < 4.00 |  | CN(C)C(=O)[C@@H](c1ccc(-c2ccc(F)cc2)cc1)[C@H](N)C(=O)N1CCC1
32 | < 4.00 | 7.68 | 4.09 | < 4.00 |  | CN(C)C(=O)[C@@H](c1ccc(-c2cccc(S(C)(=O)=O)c2)cc1)[C@H](N)C(=O)N1CC[C@H](F)C1
33 | < 4.00 | 7.35 | < 4.00 |  |  | CON(C)C(=O)[C@@H](c1ccc(-c2ccc(F)cc2)cc1)[C@H](N)C(=O)N1CC[C@H](F)C1
34 | < 4.00 | 6.28 | 4.11 | < 4.00 |  | CN(C)C(=O)[C@@H](c1ccc(-c2ccc(F)cc2)cc1)[C@H](N)C(=O)N1CCOCC1
35 | < 4.00 | 7.17 | < 4.00 |  |  | CN(C)NC(=O)[C@@H](c1ccc(-c2ccc(F)cc2)cc1)[C@H](N)C(=O)N1CC[C@H](F)C1
36 | < 4.00 | 6.66 | 4.68 | < 4.00 |  | COC(=O)[C@@H](c1ccc(-c2ccc(F)cc2)cc1)[C@H](N)C(=O)N1CC[C@H](F)C1
37 | < 4.00 | 7.70 | 4.37 |  |  | CCN(C)C(=O)[C@@H](c1ccc(-c2ccc(F)cc2)cc1)[C@H](N)C(=O)N1CC[C@H](F)C1
38 | < 4.00 | 7.72 | 4.24 |  |  | CN(C)C(=O)[C@@H](c1ccc(-c2cccc(-[n+]3ccccc3)c2)cc1)[C@H](N)C(=O)N1CC[C@H](F)C1
39 |  | 7.70 | 4.05 | < 4.00 |  | CN(C)C(=O)[C@@H](c1ccc(-c2ccc(-[n+]3ccccc3)cc2)cc1)[C@H](N)C(=O)N1CC[C@H](F)C1
